Test results reported in patent US20180186968A1, “AGENT FOR SUPPRESSING ODORS OF POLYSULFIDE COMPOUNDS” (KAO CORPORATION, priority 2015, published 2018).

How the values were obtained:
olfactory receptor OR4S2 [1] = target: T1, olfactory receptor OR4S2 (Homo sapiens, UniProt Q8NH73); experiment: Luciferase reporter gene assay: suppression of OR4S2 response to DMDS or DMTS by test substance (OR4S2 antagonist search); assay type: cell-based; conditions: for response of OR4S2 to DMDS in the presence of test substance (Response %): DMDS 1 mM, test substance 0 to 3000 μM, FIG. 4; for response of OR4S2 to DMTS in the presence of test substance (Fold increase): DMTS 300 μM, test substance 100 μM, FIG. 5
T1 construct: Flag-Rho tag (N); expressed in transfected cells; host or cells: HEK293
T1 sequence (Q8NH73 1-311): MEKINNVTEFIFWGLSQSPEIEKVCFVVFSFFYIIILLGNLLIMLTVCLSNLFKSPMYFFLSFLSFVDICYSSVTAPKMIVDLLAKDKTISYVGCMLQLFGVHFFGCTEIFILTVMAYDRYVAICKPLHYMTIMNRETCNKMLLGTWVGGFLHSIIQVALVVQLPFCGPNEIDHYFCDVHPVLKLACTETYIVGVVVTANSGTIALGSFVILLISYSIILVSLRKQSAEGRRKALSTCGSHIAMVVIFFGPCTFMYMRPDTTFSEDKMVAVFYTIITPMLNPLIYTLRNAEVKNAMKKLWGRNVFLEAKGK
Protocol: By using the same procedure as in Example 1 (1) to (3), HEK293 cells expressing OR4S2 (SEQ ID NO: 1) were prepared. The response of the olfactory receptor to DMDS (the value fLuc/hRluc) was measured in the presence and absence of a test substance by using luciferase reporter gene assay in accordance with the procedure in Example 1 (4). The value fLuc/hRluc induced by a stimulus of single DMDS, (X), the value fLuc/hRluc for cells without a stimulus of DMDS, (Y), and the value fLuc/hRluc induced by a co-stimulus of DMDS and a test substance, (Z), were determined, and the intensity of the response (Response (%)) of the receptor to DMDS in the presence of a test substance was determined by using the following formula.
Response (%)=(Z−Y)/(X−Y)×100
The experiment s performed independently three times, and the average value of the experiments was determined. The concentration of DMDS to be added to a culture was set a 1 mM, and the concentration of a test substance to be added was changed in the range of 0 to 3000 μM.
For the response to DMTS, the value fLuc/hRluc to a stimulus of single DMTS, (X′), was divided by the value fLuc/hRluc for cells without a stimulus of DMTS, (Y), and the calculated value, (X′/Y), was calculated as a value of the response to DMTS Fold increase). To compare the effect of a test substance on the response to DMTS, the value fLuc/hRluc induced by a co-stimulus of DMTS and a test substance, (Z′), was similarly divided by the value fLuc/hRluc for cells without a stimulus, (Y), to calculate (Z′/Y) as Fold increase. The experiment was performed independently three times, and the average value of the experiments was determined. The concentration of DMTS to be added to a culture was set at 300 μM, and the concentration of a test substance to be added set at 100 μM.

[2] = Sensory test of odor-suppressing effect for polysulfide compounds; assay type: in vivo, human; conditions: for odor intensity of DMTS (sensory evaluation): 0.01% (v/v) DMTS and 0.1% (v/v) test substance in mineral oil, 11 evaluators, FIG. 7; for odor intensity of DMDS (sensory evaluation): 0.1% (v/v) DMDS and 0.1% (v/v) test substance in mineral oil, 10 evaluators, FIG. 6
Protocol: The odor-suppressing effect of each of trimethylhexyl aldehyde (THA), cis-4-heptenal, and 1,4-cineol, as the OR4S2 antagonists identified in Example 2, for polysulfide compounds was checked in a sensory test.
For each of DMDS, THA, cis-4-heptenal, and 1,4-cineol, a 0.1% (v/v) solution in mineral oil was prepared. For DMTS, a 0.01% (v/v) solution in mineral oil was prepared. Two cotton balls were put in 20 mL glass bottle (Maruemu Corporation, No. 6), and one cottonball was impregnated with 30 μL of the DMDS or DMTS solution, and the other cotton ball was impregnated with 30 μL of a solution of one of the three OR4S2 antagonists. The glass bottle containing the cotton balls was covered with a lid, and left to stand at 37° C. for 1 hour, and thereafter used as a test sample for a sensory test. Glass bottles containing only cotton ball impregnated with the DMDS or DMTS solution were prepared as reference samples, and a glass bottle containing only cotton ball impregnated with mineral oil (Vehicle) was prepared as a control sample.
A sensory test was performed in a single-blinded mode with 10 evaluators for DMDS and 11evaluators for DMTS. The test was initiated after two o'clock pm, which was 1.5 hours or longer after a meal. To prevent diffusion of a smell, the test was performed essentially under a fume hood. To eliminate the influence of adaptation to odors of polysulfide compounds, the evaluators were appropriately checked for the intensity of recognition to the odor of DMDS or DMTS in the test, and rested as necessary. The evaluators were separated into two groups, and one group evaluated the odor-suppressing effect for DMDS or DMTS with respect to THA, cis-4-heptenal, and 1,4-cineol, in the presented, and the other group evaluated in with respect to 1,4-cineol, cis-4-heptenal, and THA, in the order presented. Each test sample was replaced with another one after evaluation by each of three evaluators.
In evaluation of odors of test samples, the following criteria in five grades were set for each evaluator; “odor of DMDS (or DMTS) was 1: unidentifiable, 2: perceivable, 3: easily identifiable, 4: strong, 5: intolerably strong”, and the evaluators rated the odor intensity of DMDS (or DMTS) for each test sample in nine grades from 1.0 to 5.0 at an interval of 0.5, where the odor intensity of single DMDS (or DMTS) was assumed as 3. The average value of the evaluation results by the evaluators was determined.

olfactory receptor OR4S2 [3] = target: T1, olfactory receptor OR4S2; experiment: Luciferase reporter gene assay: response of olfactory receptor to sulfur compounds; assay type: cell-based; conditions: for response of olfactory receptor OR4S2 to polysulfide compound (fold increase): 100 μM polysulfide compound, 428 olfactory receptors measured, HEK293 cells, FIG. 1; for response of OR4S2 at different concentrations: HEK293 cells expressing OR4S2, FIG. 2
Source text: A human olfactory receptor cloned using the PCR method with human genomic DNA (G1521:Promega Corporation) as a template on the basis of sequence information registered in GenBank. Each gene amplified through the PCR method was incorporated into a pENTR vector (Invitrogen) in accordance with the manual, and recombined, by utilizing the NotI and AscI sites present in the pENTR vector, with a pME18S vector at the NotI and AscI sites produced in the downstream of he Flag-Rho tag sequence of the pME18S vector. • (2) Preparation of pME18S-human RTP1S Vector
A vector expressing receptor-transporting protein (RTP), a protein which promotes the expression of an olfactory receptor polypeptide on the cell membrane, was prepared. Specifically, a gene encoding human RTP1S (GI: 50234917) was incorporated into a pME18S vector at the EcoRI and XhoI sites thereof. • (3) Preparation of Olfactory Receptor-expressing Cells
HEK293 cells expressing any one of human olfactory receptors were produced. A reaction solution with a composition shown in Table 2 was prepared and left to stand in a clean bench for 15 minutes, and then added to each well of a 96-well plate (BD Biosciences). Subsequently, 90 μL of HEK293 cells (3×10^5 cells/cm^2) was seeded in each well, and cultured in an incubator retained at 37° C. and 5% CO2 for 24 hours. As a control, cells with conditions for no expression of an olfactory receptor (Mock) were prepared and used in an experiment.
An olfactory receptor expressed on HEK293 cells increases the intracellular cAMP level through conjugation with the intracellular Gas followed by resulting activation of adenylate cyclase. For smell response measurement in this study, luciferase reporter gene assay was used in which increase of the intracellular cAMP level is monitored as an emission value derived from a firefly luciferase gene (fluc2P-CRE-hygro). Transgenesis was simultaneously performed by using a product with a sea pansy luciferase gene fused to the downstream of the CMV promoter (hRluc-CMV), and the resultant was used as an internal standard to correct errors of transgenesis efficiency and the number of cells.
The medium was removed from the culture prepared in the above(3), and 75 μL of a solution containing a polysulfide compound prepared with DMEM (NACALAI TESQUE, INC.) was added. The polysulfide compound was 100 μM of dimethyl disulfide (DMDS) or dimethyl trisulfide (DMTS). The cells were cultured in a CO2 incubator for 3 hours to allow the luciferase gene to be sufficiently expressed in the cells. Measurement of the activity of luciferase was performed by using a Dual-Glo (TM) luciferase assay system (Promega Corporation) in accordance with an operation manual of the product. For each stimulus condition, the value fLuc/hRluc was calculated by dividing the emission value derived from sea pansy luciferase. The value fLuc/hRluc derived from firefly luciferase and induced by a stimulus of a polysulfide compound was divided by the value fLuc/hRluc for cells without a stimulus of a polysulfide compound to calculate a fold increase, and the fold increase was used as an indicator of intensity of response. • (5) Results

Row | Compound | response of OR4S2 to DMDS in the presence of test substance (Response %) (olfactory receptor OR4S2 [1]) | response of OR4S2 to DMTS in the presence of test substance (Fold increase) (olfactory receptor OR4S2 [1]) | odor intensity of DMTS (sensory evaluation) [2] | odor intensity of DMDS (sensory evaluation) [2] | further results
1 | CC1=CC=C(C(C)C)CC1 [α-terpinene, p-Mentha-1,3-diene] | suppressed the response of OR4S2 to DMDS in a concentration-dependent manner | suppressed the response of OR4S2 to DMTS |  |  | 
2 | CC(CC=O)CC(C)(C)C (stereo not drawn) [Trimethylhexyl aldehyde, 3,5,5-Trimethylhexanal] | suppressed the response of OR4S2 to DMDS in a concentration-dependent manner | suppressed the response of OR4S2 to DMTS | suppressed the odor intensity | suppressed the odor intensity | 
3 | CSSSC [DMTS, Dimethyl trisulfide] |  |  |  |  | response of olfactory receptor OR4S2 to polysulfide compound (fold increase) (olfactory receptor OR4S2 [3]): exhibits a specific response; response of OR4S2 at different concentrations (olfactory receptor OR4S2 [3]): concentration-dependent manner
4 | CS [methylmercaptan, Methylmercaptan] |  |  |  |  | response of OR4S2 to methylmercaptan (olfactory receptor OR4S2 [3]; 3 mm test substance, FIG. 3): did not respond
5 | CC(C)C12CCC(C)(CC1)O2 [1,4-cineol, 1,4-Cineole] | suppressed the response of OR4S2 to DMDS in a concentration-dependent manner | suppressed the response of OR4S2 to DMTS | suppressed the odor intensity | suppressed the odor intensity | 
6 | C=C(C)[C@H]1CC=C(C)CC1 [dipentene, Dipentene] | suppressed the response of OR4S2 to DMDS in a concentration-dependent manner |  |  |  | 
7 | CSSC [DMDS, Dimethyl disulfide] |  |  |  |  | response of olfactory receptor OR4S2 to polysulfide compound (fold increase) (olfactory receptor OR4S2 [3]): exhibits a specific response; response of OR4S2 at different concentrations (olfactory receptor OR4S2 [3]): concentration-dependent manner
8 | (+)-Limonene oxide | suppressed the response of OR4S2 to DMDS in a concentration-dependent manner | suppressed the response of OR4S2 to DMTS |  |  | 
9 | CC/C=C\CCC=O [cis-4-heptenal, (Z)-Hept-4-enal] | suppressed the response of OR4S2 to DMDS in a concentration-dependent manner | suppressed the response of OR4S2 to DMTS | suppressed the odor intensity | suppressed the odor intensity | 
10 | CCCCOC(=O)C(C)CC (stereo not drawn) [butyl 2-methylbutanoate, Butyl 2-methylbutanoate] | suppressed the response of OR4S2 to DMDS in a concentration-dependent manner | suppressed the response of OR4S2 to DMTS |  |  | 
